Experimental data taken from publication PMC10223019, “Preclinical Evaluation of a PSMA-Targeting Homodimer with an Optimized Linker for Imaging of Prostate Cancer” (Molecules, 2023).

How the values were obtained:
[1] = tested on: BALB/c nude mice bearing LS174T PSMA-positive tumor xenografts; experiment: Ex vivo biodistribution studies; assay type: in vivo
Method: Animal experiments were performed in 8–10 weeks old male BALB/c nude mice (Janvier Labs, Le Genest-Saint-Isle, France). Animals were housed in individually ventilated cages (Blue line IVC, 4 mice per cage) under nonsterile standard conditions with cage enrichment present and free access to chlorophyll-free animal chow (Sniff GmbH, Soest, Germany) and water and acclimated for 1 week before experiments. Mice were subcutaneously inoculated with 4.0 × 10^6 LS174T cells in the right flank, diluted in 100 μL of cell suspension. Seven days after tumor cell inoculation, when xenografts were approximately 0.2–0.3 cm^3, the tracers were injected intravenously via the tail vein. All experiments were approved by the institutional Animal Welfare Committee and were conducted in accordance with the guidelines of the Revised Dutch Act on Animal Experimentation (WOD).
Mice were intravenously injected with ~1 nmol of either [^111In]In-PSMA-617, [^111In]In-22 or [^111In]In-30 with molar activity of 5 MBq/nmol for ex vivo biodistribution studies. Mice (n = 4/timepoint) were euthanized by cervical dislocation at 1, 4, and 24 h p.i. A block group was included, and mice were euthanized at 4 h p.i. Organs were collected in tubes and counted in the gamma counter, where the calibration factor was determined by measuring different known activities of indium-111.

[2] = Stability in mouse serum, radio-HPLC; assay type: in vitro ADME
Method: [^111In]In-22 or [^111In]In-30 (~35 MBq, 70 µL) was mixed with 330 μL of mouse serum and incubated at 37 °C for up to 24 h. After 1, 4, and 24 h incubation, 50 μL of the mouse serum solution was added to a separate vial containing 50 µL of acetonitrile. The sample was centrifuged at 5000× g for 20 min. The supernatant was analyzed by radio-HPLC.

[3] = LogD7.4 by shake-flask method (PBS/n-octanol); assay type: physicochemical; settings: LogD7.4, PBS pH 7.4/n-octanol, indium-111 labeled compound
Method: The distribution coefficients (LogD7.4 values) were determined by a shake-flask method, in which 2 μL (~0.5 MBq) of the labeling solution ([^111In]In-22 or [^111In]In-30) were added to an Eppendorf tube containing 1 mL of PBS (0.01 M, pH 7.4)/n-octanol (v/v, 1:1). After vigorous vortexing, the solution was centrifuged at 2500× g for 15 min for phase separation. Samples (3 × 10 μL) of the two phases were taken out and measured in a gamma counter. LogD7.4 values were calculated by using the following equation: LogD7.4 = log [(counts in octanol phase)/(counts in aqueous phase)] and the experiment was performed in triplicate.

[4] = tested on: PSMA expressing LS174T cells; experiment: Internalization and cell uptake assay; assay type: cell-based, human; settings: 2 h 37 °C
Method: LS174T human colon carcinoma cells transfected with human PSMA were obtained from Dr. Sandra Heskamp (Radboud UMC, Nijmegen). Cells were cultured in RPMI-1640 media supplemented with 2 mM glutamine, 10% fetal bovine serum (FBS) and 0.3 mg/mL G418 (Geneticin, Sigma Aldrich, St. Louis, MO, USA).
Cells were seeded (1.2 × 10^6 cells/well) and cultured to confluency for 24 h prior to experiments. We prepared 10^−9 M solutions of [^111In]In-PSMA-617, [^111In]In-22, and [^111In]In-30 in internalization media (RPMI, 20 mM HEPES, 1% BSA, pH 7.4). The media were removed from each well, and they were rinsed twice with PBS at rt. 2 mL of the radioactive compound was then added to each well and incubated at 37 °C for 2 h. For the internalization assay, the media containing radioactive compound were removed, and each well was washed twice with cold PBS. A total of 1 mL of Glycine buffer (50 mM glycine, 100 mM NaCl, pH 2.8) was added immediately and incubated for 10 min at rt. The glycine wash was then collected into counting tubes (membrane-bound fraction). An extra wash was performed and collected in the same tubes. A total of 1 mL of NaOH (1 M) was then added to each tube and left for 15 min at rt. The lysate (internalized fraction) was then collected in separate counting tubes, together with one extra NaOH wash. Data were normalized to 1,000,000 cells and percentage added dose.

[5] = Stability in phosphate-buffered saline (PBS), radio-HPLC; assay type: physicochemical; settings: 24 h post-incubation, 37 °C, indium-111 labeled, intact fraction
Method: [^111In]In-22 or [^111In]In-30 (~10 MBq, 20 µL) was mixed with 80 μL of PBS (0.01 M, pH 7.4) and incubated at 37 °C for up to 24 h. A sample of the PBS solution was loaded directly onto the radio-HPLC at 1, 4, and 24 h post-incubation.

[6] = 4 h p.i. block group (excess unlabeled PSMA ligand)

Tumor-to-muscle (T/M) ratio ([1]; 1 h p.i.): 31 | Blood uptake ([1]; 1 h p.i., i.v. ~1 nmol): 0.14 ± 0.01 % ID/g | Bone uptake ([1]; 1 h p.i., i.v. ~1 nmol): 0.20 ± 0.01 % ID/g | Heart uptake ([1]; 1 h p.i., i.v. ~1 nmol): 0.13 ± 0.05 % ID/g | Intestines uptake ([1]; 1 h p.i., i.v. ~1 nmol): 0.26 ± 0.17 % ID/g | Kidney uptake ([1]; 1 h p.i., i.v. ~1 nmol): 22.56 ± 2.59 % ID/g | Liver uptake ([1]; 1 h p.i., i.v. ~1 nmol): 0.17 ± 0.03 % ID/g | Lung uptake ([1]; 1 h p.i., i.v. ~1 nmol): 0.45 ± 0.07 % ID/g | Muscle uptake ([1]; 1 h p.i., i.v. ~1 nmol): 0.07 ± 0.01 % ID/g | Pancreas uptake ([1]; 1 h p.i., i.v. ~1 nmol): 0.22 ± 0.03 % ID/g | Prostate uptake ([1]; 1 h p.i., i.v. ~1 nmol): 0.51 ± 0.25 % ID/g | Skin uptake ([1]; 1 h p.i., i.v. ~1 nmol): 0.44 ± 0.16 % ID/g | Spleen uptake ([1]; 1 h p.i., i.v. ~1 nmol): 1.82 ± 0.37 % ID/g | Stomach uptake ([1]; 1 h p.i., i.v. ~1 nmol): 0.11 ± 0.01 % ID/g | Tumor uptake ([1]; 1 h p.i., i.v. ~1 nmol): 2.05 ± 0.52 % ID/g | Tumor-to-muscle (T/M) ratio ([1]; 4 h p.i.): 48 | Blood uptake [1, 6]: 0.02 ± 0.00 % ID/g | Bone uptake [1, 6]: 0.23 ± 0.13 % ID/g | Heart uptake [1, 6]: 0.04 ± 0.01 % ID/g | Intestines uptake [1, 6]: 0.27 ± 0.03 % ID/g | Kidney uptake [1, 6]: 8.20 ± 0.67 % ID/g | Liver uptake [1, 6]: 0.09 ± 0.00 % ID/g | Lung uptake [1, 6]: 0.09 ± 0.01 % ID/g | Muscle uptake [1, 6]: 0.03 ± 0.01 % ID/g | Pancreas uptake [1, 6]: 0.04 ± 0.01 % ID/g | Prostate uptake [1, 6]: 0.09 ± 0.01 % ID/g | Skin uptake [1, 6]: 0.24 ± 0.07 % ID/g | Spleen uptake [1, 6]: 0.09 ± 0.00 % ID/g | Stomach uptake [1, 6]: 0.17 ± 0.13 % ID/g | Tumor uptake [1, 6]: 0.27 ± 0.14 % ID/g | Blood uptake ([1]; 4 h p.i., i.v. ~1 nmol): 0.02 ± 0.01 % ID/g | Bone uptake ([1]; 4 h p.i., i.v. ~1 nmol): 0.11 ± 0.06 % ID/g | Heart uptake ([1]; 4 h p.i., i.v. ~1 nmol): 0.04 ± 0.01 % ID/g | Intestines uptake ([1]; 4 h p.i., i.v. ~1 nmol): 0.30 ± 0.05 % ID/g | Kidney uptake ([1]; 4 h p.i., i.v. ~1 nmol): 13.55 ± 1.04 % ID/g | Liver uptake ([1]; 4 h p.i., i.v. ~1 nmol): 0.10 ± 0.01 % ID/g | Lung uptake ([1]; 4 h p.i., i.v. ~1 nmol): 0.12 ± 0.03 % ID/g | Muscle uptake ([1]; 4 h p.i., i.v. ~1 nmol): 0.03 ± 0.02 % ID/g | Pancreas uptake ([1]; 4 h p.i., i.v. ~1 nmol): 0.06 ± 0.03 % ID/g | Prostate uptake ([1]; 4 h p.i., i.v. ~1 nmol): 0.18 ± 0.17 % ID/g | Skin uptake ([1]; 4 h p.i., i.v. ~1 nmol): 0.24 ± 0.18 % ID/g | Spleen uptake ([1]; 4 h p.i., i.v. ~1 nmol): 0.30 ± 0.09 % ID/g | Stomach uptake ([1]; 4 h p.i., i.v. ~1 nmol): 0.09 ± 0.06 % ID/g | Tumor uptake ([1]; 4 h p.i., i.v. ~1 nmol): 1.23 ± 0.59 % ID/g | Tumor-to-muscle (T/M) ratio ([1]; 24 h p.i.): 14 | Bone uptake ([1]; 24 h p.i., i.v. ~1 nmol): 0.13 ± 0.04 % ID/g | Heart uptake ([1]; 24 h p.i., i.v. ~1 nmol): 0.03 ± 0.01 % ID/g | Intestines uptake ([1]; 24 h p.i., i.v. ~1 nmol): 0.04 ± 0.02 % ID/g | Kidney uptake ([1]; 24 h p.i., i.v. ~1 nmol): 5.89 ± 1.49 % ID/g | Liver uptake ([1]; 24 h p.i., i.v. ~1 nmol): 0.06 ± 0.01 % ID/g | Lung uptake ([1]; 24 h p.i., i.v. ~1 nmol): 0.05 ± 0.01 % ID/g | Muscle uptake ([1]; 24 h p.i., i.v. ~1 nmol): 0.03 ± 0.00 % ID/g | Pancreas uptake ([1]; 24 h p.i., i.v. ~1 nmol): 0.03 ± 0.01 % ID/g | Prostate uptake ([1]; 24 h p.i., i.v. ~1 nmol): 0.08 ± 0.03 % ID/g | Skin uptake ([1]; 24 h p.i., i.v. ~1 nmol): 0.15 ± 0.01 % ID/g | Spleen uptake ([1]; 24 h p.i., i.v. ~1 nmol): 0.09 ± 0.02 % ID/g | Stomach uptake ([1]; 24 h p.i., i.v. ~1 nmol): 0.02 ± 0.01 % ID/g | Tumor uptake ([1]; 24 h p.i., i.v. ~1 nmol): 0.61 ± 0.40 % ID/g | Tumor uptake ([1]; 24 h p.i., i.v. ~1 nmol, listed as [111In]In-22): 0.41 ± 0.08 % ID/g | Stability in Mouse Serum (%) ([2]; 24 h post-incubation, 37 °C, indium-111 labeled, intact fraction): 95.1% | Proteolytic degradation ([2]; mouse serum up to 24 h): No proteolytic degradation | logD [3]: −3.26 ± 0.05 | Stability in PBS (%) [5]: 95.4%
Structure (SMILES): CC(C)C[C@H](NC(=O)[C@H](Cc1ccccc1)NC(=O)[C@H](CC(=O)O)NC(=O)CCC(C(=O)O)N1CCN(CC(=O)[O-])CCN(CC(=O)[O-])CCN(CC(=O)[O-])CC1)[C@@H](O)CC(=O)NCCCCCC(=O)NCCCC[C@H](NC(=O)N[C@@H](CCC(=O)O)C(=O)O)C(=O)O.[111In+3] (stereo partly drawn) [[^111In]In-22]
Internalized fraction ([4]; 10^-9 M, NaOH lysate): 0.53 ± 0.08 % AD | Membrane-bound uptake ([4]; 10^-9 M, glycine wash): 1.02 ± 0.15 % AD | Total uptake ([4]; 10^-9 M, normalized to 1,000,000 cells): 1.55 ± 0.21 % AD | Internalized fraction as share of total uptake (internalization) [4]: 34.2% | Membrane-bound uptake as share of total uptake [4]: 66% | Membrane-bound uptake as share of total uptake ([4]; listed as [111In]In-22): 65.8%
